Key:
[1] = Cytotoxicity against human MT4 cells assessed as reduction in cell viability measured after 5 days by CellTiter-Glo assay; format: toxicity, cell-based
[2] = Inhibition of HIV 3B integrase infected in human MT4 cells assessed as reduction in viral replication after 5 days by CellTiter-Glo assay; format: cell-based; settings: Human immunodeficiency virus 1, 3B, MT4, 120 h

| Structure (SMILES) | CC50 at 120 h [1] | EC50 [2] |
| --- | --- | --- |
| O=C(NCc1c(F)cc(F)cc1F)c1cn2c(c(O)c1=O)C(=O)N1CCCC[C@]13COCC[C@H]23 | 33600 nM | 1.94 nM |
| O=C(NCc1ccc(F)c(Cl)c1F)c1cn2c(c(O)c1=O)C(=O)N1CCS[C@]13COCC[C@H]23 | 10800 nM | 1.2 nM |
| COc1c2n(cc(C(=O)NCc3ccc(F)c(Cl)c3F)c1=O)[C@H]1CCC[C@]13OCCN3C2=O | 4940 nM | 2.53 nM |
| C[C@H]1CCO[C@]23CCC[C@H]2n2cc(C(=O)NCc4ccc(F)c(Cl)c4F)c(=O)c(O)c2C(=O)N13 | 17500 nM | 11.8 nM |
| O=C(NCc1ccc(F)c(Cl)c1F)c1cn2c(c(O)c1=O)C(=O)N1CC=CC[C@]13CCOC[C@H]23 | 8020 nM | 4.62 nM |
| C[C@@H]1CO[C@@]23CCOC[C@@H]2n2cc(C(=O)NCc4ccc(F)c(Cl)c4F)c(=O)c(O)c2C(=O)N13 | 7530 nM | 1.82 nM |
